In the assay the test system is fibrosarcoma cell line HT1080. The assay is described as follows: Ferroptosis screening model (MTT method), Erastin-induced ferroptosis. Type of assay: cell-based, human. The following applies: Homo sapiens, HT-1080, 72 h, HT1080, ferroptosis inducer Erastin, 72 h, average of three tests, read-out: EC50. The method, then: The screening model for ferroptosis mainly used MTT method. First, the fibrosarcoma cell line HT1080 was cultured in a dish, and the cells in the logarithmic growth phase were inoculated into a 96-well plate in a certain number (3000-10000 cells/well), 100 μL per well, and then the plate was put in an 5% CO2 incubator at 37° C., to allow the cells to adhere. After 24 h, 100 μL compound solution at a certain concentration prepared in the designated medium and ferroptosis inducer Erastin (with a final concentration of […]) were added, setting 3 replicate wells for each compound to ensure the accuracy of the results, and a negative control group, a positive control group (Fer-15 μM), a blank control group and a solvent control group were included. After addition of drugs, the plate was placed in an incubator and cultivated for 72 h. On the day of MTT experiment, MTT test solution (5 mg/mL MTT solution dissolved in physiological saline, and stored in the dark at 4° C.) was pre-prepared and 20 μL MTT solution was added to each well, then the plate was put in an incubator and continued to incubate for 2-4 h. After that, 50 μL of 20% SDS solution (dissolved in MiliiQ water, added with 1% concentrated hydrochloric acid) was added to each well and kept in an incubator overnight. On the next day, the absorbance at 570 nm was measured with a microplate reader, to calculate the inhibition rate of drugs on ferroptosis. Generally, the absorbance value of the control group should be in the range of 0.8-1.2 as a normal value.
GraphPadPrism5 software was used to fit the change curve of inhibition rate and calculate the EC50.
For orientation: Tetrazolium dyes change colour on reduction, which living cells bring about.

For `COc1ccc(C(C)c2ccc3c(c2)Nc2ccccc2S3)cc1OC` (stereo not shown) [Compound A47, 2-(1-(3,4-dimethoxylphenyl)ethyl)-10H-phenothiazine], the EC50 (commonly the concentration that produces a half-maximal response) was found to be 7 nM.

On to `COc1cc(C(C)c2ccc3c(c2)Nc2ccccc2S3)ccc1C` (stereo not shown) [Compound A48, 2-(1-(3-methoxyl-4-methylphenyl)ethyl)-10H-phenothiazine], for which the half-maximal effective concentration (EC50) came out at 22 nM. For `COc1ccc(C(C)c2ccc3c(c2)Nc2ccccc2S3)cc1C` (stereo not shown) [Compound A49, 2-(1-(4-methoxyl-3-methylphenyl)ethyl)-10H-phenothiazine] the value was 19 nM; for `COc1cc(C(C)c2ccc3c(c2)Nc2ccccc2S3)ccc1Cl` (stereo not shown) [Compound A50, 2-(1-(4-chloro-3-methoxylphenyl)ethyl)-10H-phenothiazine], 25 nM; for `COc1cc(C(C)c2ccc3c(c2)Nc2ccccc2S3)ccc1F` (stereo not shown) [Compound A51, 2-(1-(4-fluoro-3-methoxylphenyl)ethyl)-10H-phenothiazine], 22 nM. To `Cc1ccc(C(C)c2ccc3c(c2)Nc2ccccc2S3)cc1[N+](=O)[O-]` (stereo not shown) [Compound A52, 2-(1-(4-methyl-3-nitrophenyl)ethyl)-10H-phenothiazine] belongs 13 nM; to `COC(=O)c1ccc(C(C)c2ccc3c(c2)Nc2ccccc2S3)cc1Cl` (stereo not shown) [Compound A53, 4-(1-(10H-phenothiazin-2-yl)ethyl)-2-chlorobenzoic acid methyl ester], 20 nM. To `Cc1cc(C(C)c2ccc3c(c2)Nc2ccccc2S3)ccc1OCc1ccccc1` (stereo not shown) [Compound A54, 2-(1-(4-(benzyloxyl)-3-methylphenyl)ethyl)-10H-phenothiazine] belongs 68 nM; to `CC(c1ccc2c(c1)Nc1ccccc1S2)c1ccc(F)c(OCc2ccccc2)c1` (stereo not shown) [Compound A55, 2-(1-(3-(benzyloxyl)-4-fluorophenyl)ethyl)-10H-phenothiazine], 59 nM; to `CC(c1cc(F)cc(F)c1)c1ccc2c(c1)Nc1ccccc1S2` (stereo not shown) [Compound A56, 2-(1-(3,5-difluorophenyl)ethyl)-10H-phenothiazine], 19 nM.

Consider `CC(c1cc(Cl)cc(Cl)c1)c1ccc2c(c1)Nc1ccccc1S2` (stereo not shown) [Compound A57, 2-(1-(3,5-dichlorophenyl)ethyl)-10H-phenothiazine], for which the EC50 was 18 nM. For `CC(c1cc(C(F)(F)F)cc(C(F)(F)F)c1)c1ccc2c(c1)Nc1ccccc1S2` (stereo not shown) [Compound A58, 2-(1-(3,5-bis(trifluoromethyl)phenyl)ethyl)-10H-phenothiazine] the value was 19 nM; for `Cc1cc(C)cc(C(C)c2ccc3c(c2)Nc2ccccc2S3)c1` (stereo not shown) [Compound A59, 2-(1-(3,5-dimethylphenyl)ethyl)-10H-phenothiazine], 20 nM.

As to `COc1cc(OC)cc(C(C)c2ccc3c(c2)Nc2ccccc2S3)c1` (stereo not shown) [Compound A60, 2-(1-(3,5-dimethoxylphenyl)ethyl)-10H-phenothiazine], the half-maximal effective concentration (EC50) was 12 nM. For `CCOc1cc(F)cc(C(C)c2ccc3c(c2)Nc2ccccc2S3)c1` (stereo not shown) [Compound A61, 2-(1-(3-ethoxyl-5-fluorophenyl)ethyl)-10H-phenothiazine] the value was 34 nM. For `Cc1cc(Cl)cc(C(C)c2ccc3c(c2)Nc2ccccc2S3)c1` (stereo not shown) [Compound A62, 2-(1-(3-chloro-5-methylphenyl)ethyl)-10H-phenothiazine] the value was 24 nM; for `COC(=O)c1cc(F)cc(C(C)c2ccc3c(c2)Nc2ccccc2S3)c1` (stereo not shown) [Compound A63, 3-(1-(10H-phenothiazin-2-yl)ethyl)-5-fluorobenzoic acid methyl ester], 31 nM. To `CC(c1cc(F)cc(OCc2ccccc2)c1)c1ccc2c(c1)Nc1ccccc1S2` (stereo not shown) [Compound A64, 2-(1-(3-(benzyloxyl)-5-fluorophenyl)ethyl)-10H-phenothiazine] belongs 64 nM; to `CC(c1ccc2c(c1)Nc1ccccc1S2)c1ccc2c(c1)OCCO2` (stereo not shown) [Compound A65, 2-(1-(2,3-dihydrobenzo[b][1,4]dioxa-6-yl)ethyl)-10H-phenothiazine], 8 nM.

Values taken from US11440909B2, “10H-phenothiazine ferroptosis inhibitor as well as the preparative method and the use thereof” (CHENGDU HENGHAO INVESTMENT CO. LIMITED, priority 2018, dated 2022).
